Values quoted from earlier work, collected in patent US20050074494A1, “Itraconazole immediate release formulation” (priority 2003, published 2005).

In the case of `CCC(C)n1ncn(-c2ccc(N3CCN(c4ccc(OCC5COC(Cn6cncn6)(c6ccc(Cl)cc6Cl)O5)cc4)CC3)cc2)c1=O` (stereo not drawn) [Itraconazole, 4-[4-[4-[4-[[2-(2,4-dichlorophenyl)-2-(1H-1,2,4-triazol-1-ylmethyl)-1,3-dioxolan-4-yl]methoxy]phenyl]-1-piperazinyl]phenyl]-2,4-dihydro-2-(1-methylpropyl)-3H-1,2,4-triazol-3-one], the solubility in alcohols (alcohols) is listed as “very slightly soluble”, the solubility in dichloromethane (dichloromethane) is listed as “freely soluble” and the solubility in water (water) is listed as “insoluble”.
